Reference: publication PMC3214022, “Plasmodium falciparum Parasites Are Killed by a Transition State Analogue of Purine Nucleoside Phosphorylase in a Primate Animal Model” (PLoS ONE, 2011)
Where “and” joins values, the source holds several entries; their conditions need not be identical. Equal values may be shown once.

Assay: Weights, CBC and blood chemistry, Table S1 sheet PK (pharmacokinetic study)
Type: in vivo, Aotus lemurinus lemurinus
Protocol: Laboratory bred Aotus lemurinus lemurinus monkeys (0.75–0.89 kg) were maintained as described. […] Blood samples were collected before the treatment started (t = 0), 0.05 h, 0.5 h, 1 h, 2 h, 6 h, 24 h, 48 h, and 6, 12 and 18 days after the first dose from each monkey and processed as described below. Pharmacokinetic parameters were calculated using PKSolver. For efficacy studies, Aotus monkeys were inoculated intravenously with 5×10^6 parasites of the FVO strain of P. falciparum in an approved treatment protocol. […] Parasitaemia was determined by Giemsa-stained thick blood smears prepared daily from the marginal ear vein [41]. Blood samples were collected from each monkey and transferred to tubes containing lithium heparin, centrifuged and both plasma and blood cells were frozen at −80 °C until analysis. Animals received a physical examination and blood chemistry profiles were monitored after treatment as described previously. Any monkey not responding appropriately to treatment was cured of its infection with mefloquine (40 mg kg^−1). […] The day of clearance is defined as the first of three consecutive days in which the thick blood films are parasite negative. The day of recrudescence is the first of three consecutive days of positive thick blood films after a period of clearance. Suppression is defined as a transient decrease in the parasite count post-treatment without clearance.

SMILES: Nc1nc2c(CN3CC(O)C(CO)C3)c[nH]c2c(=O)[nH]1 (stereo not shown) [BCX4945, 4′-deaza-1′-aza-2′-deoxy-1′-(9-methylene)-Immucillin-G]
- Creatine (IV 10 mg/kg once a day/3 days, monkeys 21014 (c1-5), 21007 (c6-10), 22014 (c11-15), 22004 (c16-20), days -2, 6, 12, 18 (22004: 19), 79, 10 mg/kg, day 12): 0.55 mg/dL and 0.532 mg/dL
- Creatine (IV 10 mg/kg once a day/3 days, monkeys 21014 (c1-5), 21007 (c6-10), 22014 (c11-15), 22004 (c16-20), days -2, 6, 12, 18 (22004: 19), 79, 10 mg/kg, day -2): <0.5 mg/dL and 0.5 mg/dL
- Blood Urea Nitrogen (oral, one dose 50 mg/kg, monkey 23015, days -2, 6, 12, 19, 79 = c1-c5, 50 mg/kg): <10.0 mg/dL
- Creatine (oral, three doses 50 mg/kg once a day/3 days, monkey 23029, days -2, 6, 12, 19, 79 = c11-c15): <0.5 mg/dL
